Laboratory results taken from US20120134940A1, “NANODISPERSIONS” (priority 2006, published 2012).

Conditions: payload material itself
Text: By selection of a carrier which is also soluble in both DMSO and one of water, ethanol and PPG (for example PVP/HPC) it is possible to obtain a nano-disperse form of either payload material in the carrier, which can be “dissolved” in water, ethanol or PPG.

Compound: COc1cc(C=O)cc(-c2cc(C=O)cc(OC)c2O)c1O [divanillin]
- solubility in DMSO: soluble
- solubility in water, ethanol and poly-propylene glycol: insoluble
